Source: patent US10947242B2, “[1,2,4]triazolo[1,5and#8208;A]pyrimidine compounds as PDE2 inhibitors” (Janssen Pharmaceutica NV, priority 2016, dated 2021)
pIC50: −log10 of the molar value. Read-outs that look alike come from different tables or passages of the source.

Assays:
Type in all cases: biochemical
[1] = target: T1, Human recombinant PDE3A (hPDE3A) (Homo sapiens, UniProt Q14432); test: In vitro assay PDE3A (SPA, 3H-cAMP hydrolysis); settings: for IC50: hPDE3B pIC50, read-out: pIC50 (converted); for Emax: read-out: hPDE3B Emax, read-out: Emax;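 as to all read-outs here: the method names PDE3A and the table heading PDE3B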
T1 construct: purchased Scottish Biomedical; host or cells: Sf9 insect cells
In short: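 Human PDE3A, cloned from brain, as partially purified Sf9 lysate. Substrate 0.4 μM cAMP plus [3H]-cAMP (2.4 μCi/ml final) in 50 mM Tris pH 7.8, 8.3 mM MgCl2, 1.7 mM EGTA, 60 min at room temperature, 1% DMSO final. Hydrolysis read by SPA scintillation counting against no-enzyme blanks and DMSO controls.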

[2] = target: T2, Human recombinant PDE2A (hPDE2A) (Homo sapiens, UniProt O00408); test: In vitro assay PDE2A (SPA, 3H-cGMP hydrolysis); settings: for IC50: read-out: hPDE2A pIC50 (converted); for Emax: read-out: hPDE2A Emax
T2 construct: His tag (inferred from metal chelate purification); made in house; host or cells: Sf9 insect cells (baculovirus)

[3] = target: T3, Human recombinant PDE10A (hPDE10A) (Homo sapiens, UniProt Q9Y233); test: In vitro assay PDE10A, human clone (SPA, 3H-cAMP hydrolysis)
T3 construct: His tag (inferred from metal chelate purification); made in house; host or cells: Sf9 insect cells (baculovirus)
In short: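 Human recombinant PDE10A was expressed in Sf9 cells via baculovirus and incubated with compound in 50 mM Tris pH 7.8, 8.3 mM MgCl2, 1.7 mM EGTA. Substrate was 60 nM cAMP plus 0.008 μCi 3H-cAMP for 60 min at room temperature, read by SPA scintillation counting. Controls used 1% DMSO, and blanks omitted enzyme.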

[4] = human recombinant PDE2A, 10 μM cGMP substrate
[5] = human clone (h), default, read-out: hPDE10A2 Emax
[6] = human clone (h), default, read-out: hPDE10A2 pIC50 (converted)
[7] = human clone by default (no (r) mark), read-out: hPDE10A2 or rPDE10A2 Emax
[8] = human clone by default (no (r) mark), read-out: hPDE10A2 or rPDE10A2 pIC50 (converted)
[9] = hPDE2A pIC50, human recombinant PDE2A, 10 μM cGMP substrate

T1 sequence (Q14432 whole entry): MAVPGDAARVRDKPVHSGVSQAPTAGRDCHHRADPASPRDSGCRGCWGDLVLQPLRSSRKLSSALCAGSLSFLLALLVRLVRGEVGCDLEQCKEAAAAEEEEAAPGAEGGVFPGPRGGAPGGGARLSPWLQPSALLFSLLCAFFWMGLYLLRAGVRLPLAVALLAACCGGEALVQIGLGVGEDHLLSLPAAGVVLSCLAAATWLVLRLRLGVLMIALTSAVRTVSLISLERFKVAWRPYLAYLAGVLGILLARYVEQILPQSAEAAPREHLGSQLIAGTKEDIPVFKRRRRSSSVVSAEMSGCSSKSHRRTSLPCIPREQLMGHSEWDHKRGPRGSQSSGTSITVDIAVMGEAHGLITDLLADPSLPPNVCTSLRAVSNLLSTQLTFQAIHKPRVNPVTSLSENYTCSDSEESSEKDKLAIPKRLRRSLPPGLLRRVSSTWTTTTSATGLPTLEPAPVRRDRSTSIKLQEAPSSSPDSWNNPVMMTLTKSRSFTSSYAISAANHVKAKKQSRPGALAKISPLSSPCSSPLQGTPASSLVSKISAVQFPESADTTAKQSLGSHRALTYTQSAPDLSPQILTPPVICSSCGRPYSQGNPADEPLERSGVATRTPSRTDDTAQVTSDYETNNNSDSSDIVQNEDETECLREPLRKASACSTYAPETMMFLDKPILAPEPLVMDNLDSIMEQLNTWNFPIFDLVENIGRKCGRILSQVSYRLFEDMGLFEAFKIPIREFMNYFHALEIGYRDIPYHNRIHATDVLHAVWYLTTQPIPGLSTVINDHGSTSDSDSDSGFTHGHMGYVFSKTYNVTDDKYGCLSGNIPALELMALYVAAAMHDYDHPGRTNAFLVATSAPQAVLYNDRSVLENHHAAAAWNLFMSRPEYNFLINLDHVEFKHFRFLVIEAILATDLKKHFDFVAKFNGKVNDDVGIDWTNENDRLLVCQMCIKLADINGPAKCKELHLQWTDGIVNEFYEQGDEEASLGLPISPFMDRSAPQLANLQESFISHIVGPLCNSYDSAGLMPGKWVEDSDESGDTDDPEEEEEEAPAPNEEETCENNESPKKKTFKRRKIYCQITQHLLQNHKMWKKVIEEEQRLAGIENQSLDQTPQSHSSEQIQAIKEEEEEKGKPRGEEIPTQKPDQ
T3 sequence (Q9Y233 267-1055): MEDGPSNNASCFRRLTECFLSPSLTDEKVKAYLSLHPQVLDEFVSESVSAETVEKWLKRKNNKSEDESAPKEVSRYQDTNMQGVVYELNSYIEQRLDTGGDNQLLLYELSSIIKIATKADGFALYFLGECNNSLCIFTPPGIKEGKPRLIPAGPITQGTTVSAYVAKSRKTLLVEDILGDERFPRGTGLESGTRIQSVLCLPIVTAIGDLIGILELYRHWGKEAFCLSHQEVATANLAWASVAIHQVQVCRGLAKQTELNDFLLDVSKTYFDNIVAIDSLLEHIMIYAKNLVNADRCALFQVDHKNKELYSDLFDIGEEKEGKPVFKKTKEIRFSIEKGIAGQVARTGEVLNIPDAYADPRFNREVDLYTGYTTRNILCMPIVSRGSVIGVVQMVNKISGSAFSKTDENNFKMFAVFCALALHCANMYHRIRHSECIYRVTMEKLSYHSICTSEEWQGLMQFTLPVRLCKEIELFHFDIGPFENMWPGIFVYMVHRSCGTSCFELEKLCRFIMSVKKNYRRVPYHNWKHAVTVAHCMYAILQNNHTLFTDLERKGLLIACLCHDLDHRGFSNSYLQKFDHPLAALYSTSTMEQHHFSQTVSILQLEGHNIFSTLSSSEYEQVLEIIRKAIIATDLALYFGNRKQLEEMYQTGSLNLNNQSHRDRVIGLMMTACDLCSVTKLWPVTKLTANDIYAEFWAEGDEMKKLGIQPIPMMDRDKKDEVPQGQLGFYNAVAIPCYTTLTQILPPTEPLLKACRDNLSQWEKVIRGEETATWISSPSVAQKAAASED
T2 sequence (O00408 whole entry): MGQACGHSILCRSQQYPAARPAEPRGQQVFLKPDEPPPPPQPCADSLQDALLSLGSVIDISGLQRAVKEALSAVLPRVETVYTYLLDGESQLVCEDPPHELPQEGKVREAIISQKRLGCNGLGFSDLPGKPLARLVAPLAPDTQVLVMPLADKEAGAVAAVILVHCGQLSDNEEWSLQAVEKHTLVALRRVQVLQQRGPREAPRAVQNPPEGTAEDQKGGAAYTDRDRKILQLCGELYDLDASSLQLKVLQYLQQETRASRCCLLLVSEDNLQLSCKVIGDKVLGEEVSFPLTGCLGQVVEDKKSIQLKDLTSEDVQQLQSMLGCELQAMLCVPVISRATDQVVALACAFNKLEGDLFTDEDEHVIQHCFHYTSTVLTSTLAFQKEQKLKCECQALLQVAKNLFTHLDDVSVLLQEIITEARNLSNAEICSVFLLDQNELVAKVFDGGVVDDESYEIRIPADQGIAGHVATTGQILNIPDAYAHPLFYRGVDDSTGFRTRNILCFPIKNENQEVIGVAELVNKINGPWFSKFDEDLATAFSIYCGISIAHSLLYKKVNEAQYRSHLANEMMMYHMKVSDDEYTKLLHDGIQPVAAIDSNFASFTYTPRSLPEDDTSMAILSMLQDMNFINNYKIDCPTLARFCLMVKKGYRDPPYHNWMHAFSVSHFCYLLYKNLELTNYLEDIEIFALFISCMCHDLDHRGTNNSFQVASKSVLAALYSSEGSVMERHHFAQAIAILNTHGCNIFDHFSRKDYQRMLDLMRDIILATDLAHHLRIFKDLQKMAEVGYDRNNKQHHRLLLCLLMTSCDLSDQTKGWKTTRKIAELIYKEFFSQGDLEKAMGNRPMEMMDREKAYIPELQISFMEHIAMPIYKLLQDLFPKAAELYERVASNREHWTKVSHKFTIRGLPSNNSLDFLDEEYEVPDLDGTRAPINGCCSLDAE

Row | IC50 [1] | Emax [1] | IC50 [2, 4] | Emax ([2]; human recombinant PDE2A) | Emax [2] | IC50 [2] | Emax [3, 5] | IC50 [3, 6] | Emax [3, 7] | IC50 [3, 8] | Structure (SMILES) | pIC50 ([2]; hPDE2A pIC50) | pIC50 [2, 9]
1 | > 10000 nM | 22% | 89.1 nM | 100% | 100% | 89.1 nM | 82% | 1950 nM | – | – | C[C@@H]1CCN(C(=O)c2cncn2C)C[C@H]1c1cc(C(F)F)nc2ncnn12 [Compound 164] | – | –
2 | > 10000 nM | 36% | 93.3 nM | 100% | 100% | 93.3 nM | 78% | 3470 nM | – | – | COc1ccc(C(C)(C)C)cc1C(=O)N1CC[C@@H](C)[C@H](c2cc(C(F)F)nc3ncnn23)C1 [Compound 165] | – | –
3 | > 10000 nM | 32% | 93.3 nM | 98% | 98% | 93.3 nM | 81% | 2240 nM | – | – | C[C@@H]1CCN(C(=O)c2cc3n(n2)CCO3)C[C@H]1c1cc(C(F)F)nc2ncnn12 [Compound 166] | – | –
4 | 5370 nM | 64% | 97.7 nM | 97% | 97% | 97.7 nM | 81% | 2000 nM | – | – | C[C@@H]1CCN(C(=O)c2ccc(C(F)(F)F)nc2)C[C@H]1c1cc(C(F)F)nc2ncnn12 [Compound 167] | – | –
5 | 5130 nM | 66% | 3.98 nM | 98% | 98% | 3.98 nM | 99% | 53.7 nM | – | – | C[C@@H]1CCN(C(=O)c2ccc(O)c(F)c2)C[C@H]1c1cc(C(F)F)nc2ncnn12 [Compound 168] | – | –
6 | 1150 nM | 93% | 11.7 nM | 99% | 99% | 11.7 nM | 97% | 355 nM | – | – | COc1ccc2nc(C(=O)N3CC[C@@H](C)[C@H](c4cc(C(F)F)nc5ncnn45)C3)sc2c1 [Compound 171] | – | –
7 | 269 nM | 98% | 4.57 nM | 101% | 101% | 4.57 nM | 100% | 32.4 nM | – | – | COc1ccc2c(c1)cc(C(=O)N1CC[C@@H](C)[C@H](c3cc(C(F)F)nc4ncnn34)C1)n2C [Compound 172] | – | –
8 | > 10000 nM | 31% | 13.8 nM | 101% | 101% | 13.8 nM | 96% | 302 nM | – | – | C[C@@H]1CCN(C(=O)c2cnc(O)c(Cl)c2)C[C@H]1c1cc(C(F)F)nc2ncnn12 [Compound 173] | – | –
9 | 1320 nM | 85% | 5.25 nM | 99% | 99% | 5.25 nM | 88% | 575 nM | – | – | C[C@@H]1CCN(C(=O)c2cnc(N(C)C)nc2)C[C@H]1c1cc(C(F)F)nc2ncnn12 [Compound 174] | – | –
10 | 6030 nM | 71% | 4.9 nM | 100% | 100% | 4.9 nM | 98% | 141 nM | – | – | C[C@@H]1CCN(C(=O)c2cccc(C(C)(C)C#N)c2)C[C@H]1c1cc(C(F)F)nc2ncnn12 [Compound 175] | – | –
11 | 8710 nM | 56% | 9.12 nM | 100% | 100% | 9.12 nM | 88% | 891 nM | – | – | C[C@@H]1CCN(C(=O)c2cccc3ncoc23)C[C@H]1c1cc(C(F)F)nc2ncnn12 [Compound 176] | – | –
12 | > 10000 nM | 21% | 9.55 nM | 99% | 99% | 9.55 nM | 93% | 457 nM | – | – | C[C@@H]1CCN(C(=O)c2cnn(C)c2)C[C@H]1c1cc(C(F)F)nc2ncnn12 [Compound 177] | – | –
13 | 7410 nM | 62% | 13.5 nM | 101% | 101% | 13.5 nM | 92% | 794 nM | – | – | C[C@@H]1CCN(C(=O)c2cccc3c2ncn3C)C[C@H]1c1cc(C(F)F)nc2ncnn12 [Compound 178] | – | –
14 | > 10000 nM | 32% | 21.4 nM | 100% | 100% | 21.4 nM | 90% | 537 nM | – | – | C[C@@H]1CCN(C(=O)c2cnc3n2CCCC3)C[C@H]1c1cc(C(F)F)nc2ncnn12 [Compound 179] | – | –
15 | 5130 nM | 66% | 5.01 nM | 100% | 100% | 5.01 nM | 97% | 174 nM | – | – | C[C@@H]1CCN(C(=O)c2ccc(Cl)s2)C[C@H]1c1cc(C(F)F)nc2ncnn12 [Compound 180] | – | –
16 | > 10000 nM | 52% | 4.57 nM | 98% | 98% | 4.57 nM | 94% | 309 nM | – | – | C[C@@H]1CCN(C(=O)c2ccc(N)nc2)C[C@H]1c1cc(C(F)F)nc2ncnn12 [Compound 181] | – | –
17 | > 10000 nM | 44% | 25.1 nM | 100% | 100% | 25.1 nM | 95% | 417 nM | – | – | C[C@@H]1CCN(C(=O)c2cnc(Br)s2)C[C@H]1c1cc(C(F)F)nc2ncnn12 [Compound 182] | – | –
18 | > 10000 nM | 36% | 26.3 nM | 99% | 99% | 26.3 nM | 79% | 2290 nM | – | – | C[C@@H]1CCN(C(=O)c2cccc3ocnc23)C[C@H]1c1cc(C(F)F)nc2ncnn12 [Compound 183] | – | –
19 | 3310 nM | 79% | – | – | 98% | 21.9 nM | 87% | 1200 nM | – | – | COc1nc(C)c(C(=O)N2CC[C@@H](C)[C@H](c3cc(C(F)F)nc4ncnn34)C2)s1 [Compound 185] | – | –
20 | > 10000 nM | 35% | 5.62 nM | 98% | 98% | 5.62 nM | 91% | 417 nM | – | – | Cc1nn(C)cc1C(=O)N1CC[C@@H](C)[C@H](c2cc(C(F)F)nc3ncnn23)C1 [Compound 198] | – | –
21 | > 10000 nM | 26% | 437 nM | 98% | 98% | 437 nM | 67% | 4470 nM | 67% | 4470 nM | Cc1cc([C@H]2CN(C(=O)c3ccc4nccn4c3)CC[C@@H]2C)n2ncnc2n1 [Compound 216] | – | –
22 | > 10000 nM | 13% | 282 nM | 98% | 98% | 282 nM | 59% | 6760 nM | 59% | 6760 nM | Cc1ccc(F)c(C(=O)N2CC[C@@H](C)[C@@H](c3cc(C(F)F)nc4ncnn34)C2)n1 [Compound 222] | – | –
23 | 129 nM | 100% | 0.871 nM | 100% | 100% | 0.871 nM | 100% | 81.3 nM | 100% | 81.3 nM | C[C@@H]1CCN(C(=O)c2ccc(C3CC3)c(C3CC3)c2)C[C@H]1c1cc(C(F)F)nc2ncnn12 [Compound 226] | – | –
24 | > 10000 nM | 18% | 562 nM | 95% | 95% | 562 nM | 33% | > 10000 nM | 33% | > 10000 nM | Cc1cccnc1C(=O)N1CC[C@@H](C)[C@H](c2cc(C(F)F)nc3ncnn23)C1 [Compound 229] | – | –

Row | Structure (SMILES) | IC50 [1] | Emax [1] | IC50 [2, 4] | Emax ([2]; human recombinant PDE2A) | Emax [2] | IC50 [2] | Emax [3, 5] | IC50 [3, 6] | Emax [3, 7] | IC50 [3, 8] | pIC50 ([2]; hPDE2A pIC50) | pIC50 [2, 9]
25 | Cc1cc([C@H]2CN(C(=O)c3cc(C)c(F)c(C)c3)CC[C@@H]2C)n2ncnc2n1 [Compound 217] | > 10000 nM | 37% | – | – | 99% | – | 72% | 4790 nM | 72% | 4790 nM | 6.25 | 6.25
26 | Cc1cc([C@H]2CN(C(=O)c3cc(C)c(Cl)c(C)c3)CC[C@@H]2C)n2ncnc2n1 [Compound 218] | > 10000 nM | 51% | – | – | 100% | – | 85% | 2240 nM | 85% | 2240 nM | 6.69 | 6.69
27 | Cc1cc([C@@H]2CC[C@@H]3CC[C@H]2N3C(=O)c2ccc3ncsc3c2)n2ncnc2n1 [Compound 230] | > 10000 nM | 40% | 1020 nM | 93% | 93% | 1020 nM | 65% | 5370 nM | 65% | 5370 nM | – | –
